Measured values published in paper PMC12345723, “Valorization of Coffee Silverskin via Integrated Biorefinery for the Production of Bioactive Peptides and Xylooligosaccharides: Functional and Prebiotic Properties” (Foods, 2025).
Marks after values point to notes of the source that are not given here.

Legend:
[1] = tested on: RAW 264.7 macrophages; conditions: cited from earlier work
Protocol: A peptide concentration of 200 µg/mL was selected based on preliminary cytotoxicity screening using RAW 264.7 macrophage cells, which confirmed that this dose was non-toxic under the experimental conditions.

[2] = tested on: RAW 264.7 cells; conditions: RAW 264.7, 24 h, 0–200 µg/mL, SRB assay
Protocol: The cytotoxicity of synthetic bioactive peptides was evaluated using the sulforhodamine B (SRB) colorimetric assay, as described by Vichai and Kirtikara. Briefly, RAW 264.7 murine macrophage cells were seeded at a 2 × 10^4 cells/well density in 96-well plates and incubated for 24 h. The cells were then treated with various concentrations of peptides (0–200 μg/mL) for an additional 24 h. After treatment, the cells were fixed with cold trichloroacetic acid (TCA) and stained with 0.4% (w/v) SRB in 1% (v/v) acetic acid. Unbound dye was removed by washing, and protein-bound SRB was solubilized using […] Tris base solution. Absorbance was measured at 520 nm using a microplate reader, and cell viability was calculated as a percentage relative to untreated control cells. Non-cytotoxic concentrations of the peptides were subsequently used for further investigation of their anti-inflammatory effects on LPS-induced nitric oxide (NO) production in RAW 264.7 cells.

[3] = tested on: Dipeptidyl Peptidase-IV (DPP-IV); conditions: peptide 5000 μM; Gly-Pro-p-nitroanilide, Tris-HCl pH 8.0, 37 °C, 60 min; absorbance 385 nm; mean ± SD, n = 3
Protocol: The DPP-IV inhibitory activity was determined using a modified method based on Lacroix and Li-Chan [22]. Briefly, the synthetic peptide was diluted in 100 mM Tris-HCl buffer (pH 8.0) to a final concentration of 5000 μM. The reaction mixture was prepared in a 1.5 mL microcentrifuge tube by combining 75 μL of Gly-Pro-p-nitroanilide (1.59 mM), 50 μL of Tris-HCl buffer (pH 8.0), and 25 μL of the peptide sample. The mixture was pre-incubated at 37 °C for 10 min. Following pre-incubation, 50 μL of DPP-IV enzyme solution (0.01 U/mL) was added, and the reaction was incubated at 37 °C for 60 min. The reaction was terminated by adding 300 μL of 99.8% ethanol. The absorbance of the reaction mixture was measured at 385 nm, and the DPP-IV inhibitory activity was calculated and expressed as a percentage of inhibition.
ACE inhibitory activity was assessed at a peptide concentration of 500 μM, while DPP-IV inhibitory activity and antioxidant activity (ABTS radical scavenging assay) were evaluated at a concentration of 5000 μM.

[4] = ABTS radical scavenging assay; conditions: for Antioxidant Activity: ABTS, peptide 500 μM (table footnote), 30 min, absorbance 734 nm, mean ± SD, n = 3
Protocol: Antioxidant activity analysis was performed in the dark. DPPH, ABTS radical scavenging activity, and the ferric-reducing antioxidant power (FRAP) assay were determined following the method described by Jirarat et al. (2024). Concisely, samples were diluted using distilled water to the desired concentration. For the DPPH assay, a 500 μL sample was mixed with 500 μL of ethanolic DPPH solution (80 mg/L) for 60 min before measuring the absorbance at 517 nm. The ABTS radical (ABTS+) solution was prepared by incubating the mixture of 2.45 mM potassium persulfate solution and 7 mM ABTS solution (1:1, v/v) for 12–16 h. The deionized water was used for diluting the ABTS^+ solution to 0.70 ± 0.02 at an absorbance of […]. After that, the ABTS assay was performed by incubating a 50 μL sample with 850 μL of prepared ABTS^+ solution for 30 min, and the radical scavenging activity was determined by measuring the absorbance at 734 nm. Furthermore, the FRAP assay was performed by preparing the FRAP reagent, which consisted of 300 mM acetate buffer (pH 3.6), 20 mM FeCl3·6H2O, and 10 mM TPTZ in 40 mM HCl, mixed in a 10:1:1 volume ratio. Then, 100 μL of the sample was mixed with 900 μL the FRAP reagent and incubated for 30 min. […] The antioxidant capacity in all assays was expressed as micromoles of Trolox equivalents per liter (μmol TE/L) based on a Trolox standard curve.

| Substance | cytotoxic effects [1] | cytotoxicity [2] | DPP-IV Inhibition [3] | Antioxidant Activity [4] | ABTS radical scavenging activity ([4]; peptide 5000 μM as printed in the text) |
| --- | --- | --- | --- | --- | --- |
| DYKKY [peptide derived from whey protein hydrolysates] | no cytotoxic effects |  |  |  |  |
| phenylalanine-tyrosine-aspartic acid-threonine-tyrosine-tyrosine [FYDTYY] |  | non-toxic | 18 ± 3 ^a % |  |  |
| GTWY [peptide derived from whey protein hydrolysates] | no cytotoxic effects |  |  |  |  |
| FDYGKY [phenylalanine-aspartic acid-tyrosine-glycine-lysine-tyrosine] |  | non-toxic | 0% | 50 ± 1 ^a % |  |
| FLGY [phenylalanine-leucine-glycine-tyrosine] |  | non-toxic | 19 ± 1 ^a % | 48 ± 1 ^a % | 48% |
